According to US6991908B1, “Antiobestic agents methods for screening antiobestic agents and kits comprising same” (Takeda Chemical Industries, Ltd., priority 1998, dated 2006):
Positions of bridges follow the written chain, without caps; N, C: chain ends. No end group written: not given here.

Assays:
[1] = target: T1, rat SLC-1 (Rattus norvegicus, UniProt P97639); test: cAMP synthesis inhibitory activity on rat SLC-1-expression CHO cells (forskolin-stimulated, cAMP EIA); type: cell-based; details: 2 μM forskolin
T1 construct: expressed in transfected cells; host or cells: CHO dhfr- cells, plasmid pAKK0-SLC-1, mainly clone #44
T1 sequence (P97639 whole entry): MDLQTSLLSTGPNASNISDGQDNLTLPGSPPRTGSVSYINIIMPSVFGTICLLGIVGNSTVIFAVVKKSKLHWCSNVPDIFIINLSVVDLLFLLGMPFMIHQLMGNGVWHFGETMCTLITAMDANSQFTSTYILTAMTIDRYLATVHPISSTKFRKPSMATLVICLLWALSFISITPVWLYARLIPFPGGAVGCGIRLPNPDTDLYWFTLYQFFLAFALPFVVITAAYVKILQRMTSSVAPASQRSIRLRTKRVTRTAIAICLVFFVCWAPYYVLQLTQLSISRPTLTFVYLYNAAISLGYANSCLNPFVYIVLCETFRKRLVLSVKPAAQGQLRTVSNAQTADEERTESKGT
Protocol: The CHO/SLC-1 cells prepared in EXAMPLE 4 and mock CHO cells were inoculated on a 24-well plate in 5×10^4 cells/well. After incubation for 48 hours, the cells were washed with Hanks' balanced salt solution (pH 7.4) supplemented with 0.2 mM 3-isobutylmethylxanthine, 0.05% BSA and 20 mM HEPES (hereinafter Hanks' balanced salt solution (pH. 7.4) supplemented with 0.2 mM 3-isobutylmethylxanthine, 0.05% BSA and 20 mM HEPES is referred to as a reaction buffer). Thereafter, 0.5 ml of the reaction buffer was added to the cells, which was kept warm in the medium for 30 minutes. The reaction buffer was removed and 0.25 ml of a fresh reaction buffer was added to the cells. Then, 0.25 ml of the reaction buffer containing the HPLC fraction and 2 μM for skolin was added to the cells followed by reacting at 37° C. for 24 minutes. By adding 100 μl of 20% perchloric acid, the reaction was terminated. The reaction mixture was then allowed to stand on ice for an hour to extract intracellular cAMP. The amount of cAMP in the extract was measured using a cAMP EIA kit (Amersham Pharmacia Biotech). As a result, the cAMP synthesis inhibitory activity specific to the CHO/SLC-1 cells was detected in fractions #33, #34 and #35 (FIG. 1). In FIG. 1, taking as 100% the amount obtained by subtracting the intracellular cAMP amount when adding the reaction buffer from the intracellular cAMP amount when adding the forskolin-containing reaction buffer, the cAMP synthesis inhibitory activity was expressed by % in terms of the intracellular cAMP amount obtained by subtracting the intracellular cAMP amount when adding the reaction buffer from the intracellular cAMP amount when adding the HPLC fraction (a 1 μl aliquot of each fraction diluted to 100-fold with DMSO was added).
The CHO/SLC-1 cells selected in EXAMPLE 4 were inoculated on a 24-well plate in 5×10^4 cells/well followed by cultivation for 48 hours. […] The amount of cAMP in the extract was measured using cAMP EIA kit (Amersham Pharmacia Biotech).

[2] = target: T1, rat SLC-1; test: Arachidonic acid metabolite release activity on rat SLC-1-expression CHO cells; type: cell-based
Protocol: The CHO/SLC-1 cells selected in EXAMPLE 4 were inoculated on a 24-well plate in 5×10^4 cells/well. After incubation for 24 hours, [^3H] arachidonic acid was added to each well in 0.25 μCi/well. Sixteen hours after the addition of [^3H] arachidonic acid, the cells were washed with Hanks' balanced salt solution (pH7.4) containing 0.05% BSA and 20 mM HEPES. […] Hereinafter Hanks' balanced salt solution (pH 7.4) containing 0.05% BSA and 20 mM HEPES is referred to as a reaction buffer. After incubating at 37° C. for 60 minutes, 400 μl of the reaction solution was charged in a scintillator and the amount of [^3H]arachidonic acid metabolites released into the reaction solution was measured using a scintillation counter.

[3] = target: T1, rat SLC-1; test: GTPγS binding activity to rat SLC-1-expression CHO cell membrane fraction (Example 9); type: biochemical
Protocol: First, preparation of the membrane fraction is described. To 1×10^8 CHO/SLC-1 cells was added 10 ml of a homogenate buffer (10 mM NaHCO3, 5 mM EDTA, 0.5 mM PMSF, 1 μg/ml pepstatin, 4 μg/ml E64, 20 μg/ml leupeptin), followed by cell disruption with a polytron (12,000 rpm, 1 min.). The disrupted cells were then centrifuged (1,000 g, 15 mins.) to give the supernatant. Next, the supernatant was subjected to ultracentrifugation (Beckman type 30 rotor, 30,000 rpm, 1 hour). The resulting precipitate was used as a rat SLC-1-expression CHO cell membrane.
The GTPyS binding activity was assayed as follows. The rat SLC-1-expression CHO cell membrane fraction was diluted with a buffer for membrane dilution (50 mM Tris-hydrochloride buffer (pH 7.4), 5 mM MgCl2, 150 mM NaCl, 1 μM GDP) to make a cell membrane fraction solution for assay having a protein concentration of […]. […] The resulting solution mixture was kept at 25° C. for an hour. The mixture was filtrated through a filter. After washing twice with 1.5 ml of a washing buffer (50 mM Tris-hydrochloride buffer (pH 7.4), 5 mM MgCl2, 1 mM EDTA, 0.1% BSA), radioactivity of the filter was measured using a liquid scintillation counter.

[4] = target: T2, human SLC-1 (Homo sapiens, UniProt Q99705); test: cAMP synthesis inhibitory activity on human SLC-1-expression CHO cells; type: cell-based; details: human SLC-1 expression cells (CHO/hSLC-1(S) or CHO/hSLC-1(L)), 2 μM forskolin
T2 construct: expressed in transfected cells; host or cells: CHO dhfr- cells, plasmid pAKK0-hSLC-1(S) or pAKK0-hSLC-1(L)
T2 sequence (Q99705 with tags, fused parts or gaps): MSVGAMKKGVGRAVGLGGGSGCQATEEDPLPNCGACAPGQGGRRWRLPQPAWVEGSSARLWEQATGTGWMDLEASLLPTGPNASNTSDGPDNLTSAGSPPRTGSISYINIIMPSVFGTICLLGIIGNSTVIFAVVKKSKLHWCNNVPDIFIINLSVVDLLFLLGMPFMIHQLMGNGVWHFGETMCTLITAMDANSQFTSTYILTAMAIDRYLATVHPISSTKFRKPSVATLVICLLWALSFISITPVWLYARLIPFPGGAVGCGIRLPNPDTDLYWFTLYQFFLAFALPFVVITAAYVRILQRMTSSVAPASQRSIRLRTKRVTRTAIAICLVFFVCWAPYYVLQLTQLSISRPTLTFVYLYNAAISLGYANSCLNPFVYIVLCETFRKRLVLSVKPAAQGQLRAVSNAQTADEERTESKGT
Protocol: The CHO/hSLC-1(S) strain or the CHO/hSLC-1(L) strain, which was human SLC-1-expression CHO cells selected in EXAMPLE 13, was inoculated on a 24-well plate in 5×10^4 cells/well followed by cultivation for 48 hours. The cells were then washed with Hanks' balanced salt solution (pH 7.4) containing 0.2 mM 3-isobutylmethylxanthine, 0.05% BSA and 20 mM HEPES (hereinafter Hanks' balanced salt solution (pH 7.4) containing 0.2 mM 3-isobutylmethylxanthine, 0.05% BSA and 20 mM HEPES is referred to as a reaction buffer). Subsequently, 0.5 ml of the reaction buffer was added to the cells, which was maintained in the medium for 30 minutes. The reaction buffer was removed and 0.25 ml of a fresh reaction buffer was added to the cells. […] By adding 100 μl of 20% perchloric acid, the reaction was terminated. Next, the reaction mixture was allowed to stand on ice for an hour to extract intracellular cAMP. The amount of cAMP in the extract was measured using cAMP EIA kit (Amersham Pharmacia Biotech).

[5] = target: T2, human SLC-1; test: Arachidonic acid metabolite release activity on human SLC-1-expression CHO cells; type: cell-based; details: human SLC-1 expression cells (CHO/hSLC-1(S) or CHO/hSLC-1(L))
Protocol: The CHO/hSLC-1(S) strain or the CHO/hSLC-1(L) strain, which was human SLC-1-expression CHO cells selected in EXAMPLE 13, were inoculated on a 24-well plate in 5×10^4 cells/well. After incubation for 24 hours, [^3H] arachidonic acid was added in 0.25 μCi/well. Sixteen hours after the addition of [^3H] arachidonic acid, the cells were washed with Hanks' balanced salt solution (pH 7.4) containing 0.05% BSA and 20 mM HEPES. […] Hereinafter, Hanks' balanced salt solution (pH7.4) containing 0.05% BSA and 20 mM HEPES is referred to as a reaction buffer. After incubating at 37° C. for 60 minutes, 400 μl of the reaction solution was charged in a scintillator and the amount of [^3H] arachidonic acid metabolites released into the reaction solution was measured using a scintillation counter.

[6] = target: T2, human SLC-1; test: GTPγS binding activity using human SLC-1-expression CHO cell membrane fraction (Example 16); type: biochemical
Protocol: A human SLC-1-expression CHO cell membrane fraction was prepared by the following procedure. Human SLC-1-expression CHO cells (1×10^8 cells) were suspended in phosphate buffered saline (pH 7.4) supplemented with 5 mM EDTA (ethylene diamine tetra acetic acid) followed by centrifugation. after 10 ml of a homogenate buffer (10 mM NaHCO3, 5 mM EDTA, pH 7.5) was added to the cell pellets, the mixture was homogenized with a polytron homogenizer. the homogenate was then centrifuged at 400×g for 15 minutes. the resulting supernatant was further centrifuged at 100,000×g for an hour to give membrane fraction precipitates. the precipitates were suspended in 2 ml of an assay buffer (50 mM Tris-HCl (pH 7.5), 1 mM EDTA, 0.1% BSA (bovine serum albumin), 10 mM MgCl2, 100 mM NaCl, 1 mM GDP (guanosine 5′-diphosphate), 0.25 mM PMSF (phenylmethylsulfonyl fluoride), 1 μg/ml pepstatin, 20 μg/ml leupeptin, 10 μg/ml phosphoramidon] and the suspension was centrifuged at 100,000×g for an hour. the cell membrane recovered as precipitates was resuspended in 20 ml of the assay buffer. after dispensing, the suspension was stored at −80° C., which may be thawed every time at use.

[7] = target: T2, human SLC-1; test: Receptor binding test using [125I]-labeled MCH(4-19) and human SLC-1-expression CHO cell membrane fraction; details: various membrane fraction concentrations; FIG. 9
Protocol: The cell membrane fraction prepared from human SLC-1-expression CHO cells according to EXAMPLE 16 was diluted with an assay buffer (25 mM Tris-HCl, 1 mM EDTA (ethylene diamine tetra acetic acid), 0.1% BSA (bovine serum albumin), 0.25 mM PMSF (phenylmethylsulfonyl fluoride), 1 μg/ml pepstatin, 20 μg/ml leupeptin, 10 μg/ml phosphoramidon, pH 7.5) in various concentration.

Row | concentration at which the amount of intracellular cAMP was obviously reduced [1] [nM] | cAMP synthesis (production) inhibitory activity, dose dependence ([1]; FIG. 5) | concentration at which apparent release of arachidonic acid metabolites occurred ([2]; 37° C. 60 minutes) [nM] | arachidonic acid metabolite release, dose dependence ([2]; FIG. 6) | amount of [35S]-GTPγS bound to the membrane fraction, dose dependence [3] | EC50 ([3]; 25° C. 1 hour, read-out: concentration inducing 50% binding of [35S]-GTPγS) [nM] | amount of intracellular cAMP, dose dependence [4] | amount of [35S]-GTPγS bound, dose dependence [6] | Compound | cAMP synthesis (production) inhibitory activity, dose dependence ([1]; FIG. 5, listed as rat MCH) | arachidonic acid metabolite release activity, dose dependence [5] | specific binding (SB) to the cell membrane fraction [7]
1 | 0.1 | decreased dose-dependently | 3 | dose-dependently released | dose-dependently increased | ~0.5 | decreased dose-dependently | increased dose-dependently | CSCC[C@@H]1NC(=O)[C@@H](NC(=O)[C@H](CCCNC(=N)N)NC(=O)[C@H](CC(C)C)NC(=O)[C@H](CCSC)NC(=O)[C@H](CC(=O)O)NC(=O)[C@H](Cc2ccccc2)NC(=O)[C@@H](N)CC(=O)O)CSSC[C@@H](C(=O)N[C@@H](Cc2c[nH]c3ccccc23)C(=O)N[C@@H](CCC(N)=O)C(=O)N[C@H](C(=O)O)C(C)C)NC(=O)[C@@H]2CCCN2C(=O)[C@H](CCCNC(=N)N)NC(=O)[C@H](Cc2ccc(O)cc2)NC(=O)[C@H](C(C)C)NC(=O)[C@H](CCCNC(=N)N)NC(=O)CNC(=O)[C@H](CC(C)C)NC1=O [MCH] | showed the inhibitory activity dose-dependently | showed the arachidonic acid metabolite release activity dose-dependently | –
2 | – | – | – | – | – | – | – | – | [^125I]-[N-(3-(4-Hydroxy-3-iodophenyl)propionyl)-Met^4]-MC H(4-19) ({3‑(4-hydroxy-3-(125I)iodophenyl)propionyl}-MLRCMLGRVYRPCWQV; disulfide 4-13) [[^125I]-labeled MCH(4-19)] | – | – | recognized dependent on the concentration of the membrane fraction
